Data reported in PubChem BioAssay AID2060496 (Molecular Pharmacology Branch, DTP, NCI, 2025).
pIC50: −log10 of the molar value.

System: 276233-004-R-J1-PDC complex spheroid viability
Experiment: Anticancer human tumor 276233-004-R-J1-PDC patient-derived colon adenocarcinoma cell line growth inhibition [GQUAD]
Details: for pIC50: curve of first compound; for viability, T/C: stronger effect = lower value
How it was run: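 Viability of tumor cells grown as complex spheroids with endothelial and stromal cells, exposed to drug combinations. Top concentration at or near clinical Cmax (else 10 microM), diluted in half-log increments.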

[1] = second compound 0.0316 µM, first compound 0.0316 µM
[2] = second compound 0.0316 µM, first compound 0.1 µM
[3] = second compound 0.0316 µM, first compound 0.316 µM
[4] = second compound 0.0316 µM, first compound 1 µM
[5] = second compound 0.0316 µM, first compound 3.16 µM
[6] = second compound 0.0316 µM, first compound 10 µM
[7] = second compound 0.1 µM, first compound 0.0316 µM
[8] = second compound 0.1 µM, first compound 0.1 µM
[9] = second compound 0.1 µM, first compound 0.316 µM
[10] = second compound 0.1 µM, first compound 1 µM
[11] = second compound 0.1 µM, first compound 3.16 µM
[12] = second compound 0.1 µM, first compound 10 µM
[13] = second compound 0.316 µM, first compound 0.0316 µM
[14] = second compound 0.316 µM, first compound 0.1 µM
[15] = second compound 0.316 µM, first compound 0.316 µM
[16] = second compound 0.316 µM, first compound 1 µM
[17] = second compound 0.316 µM, first compound 3.16 µM
[18] = second compound 0.316 µM, first compound 10 µM
[19] = second compound 1 µM, first compound 0.0316 µM
[20] = second compound 1 µM, first compound 0.1 µM
[21] = second compound 1 µM, first compound 0.316 µM
[22] = second compound 1 µM, first compound 1 µM
[23] = second compound 1 µM, first compound 3.16 µM
[24] = second compound 1 µM, first compound 10 µM
[25] = second compound 3.16 µM, first compound 0.0316 µM
[26] = second compound 3.16 µM, first compound 0.1 µM
[27] = second compound 3.16 µM, first compound 0.316 µM
[28] = second compound 3.16 µM, first compound 1 µM
[29] = second compound 3.16 µM, first compound 3.16 µM
[30] = second compound 3.16 µM, first compound 10 µM
[31] = second compound 10 µM, first compound 0.0316 µM
[32] = second compound 10 µM, first compound 0.1 µM
[33] = second compound 10 µM, first compound 0.316 µM
[34] = second compound 10 µM, first compound 1 µM
[35] = second compound 10 µM, first compound 3.16 µM
[36] = second compound 10 µM, first compound 10 µM
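Note: spheroids exposed to drugs for seven days.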
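Throughout, for viability, T/C: 100% = DMSO vehicle control viability.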

C=CC(=O)N1CCN(c2nc(=O)n(-c3c(C)ccnc3C(C)C)c3nc(-c4c(O)cccc4F)c(F)cc23)C(C)C1 (stereo unspecified) + Cc1[nH]c2ccc(F)cc2c1-c1nc2c3cccnc3c3ncccc3c2[nH]1
pIC50 (second compound 0.0316 µM): < 5.00
pIC50 (second compound 0.1 µM): < 5.00
pIC50 (second compound 0.316 µM): < 5.00
pIC50 (second compound 1 µM): < 5.00
pIC50 (second compound 3.16 µM): < 5.00
pIC50 (second compound 10 µM): > 7.50
viability, T/C [1]: 106%
viability, T/C [2]: 95.5%
viability, T/C [3]: 85.4%
viability, T/C [4]: 90%
viability, T/C [5]: 95.2%
viability, T/C [6]: 88.5%
viability, T/C [7]: 102%
viability, T/C [8]: 91.9%
viability, T/C [9]: 103%
viability, T/C [10]: 108%
viability, T/C [11]: 81.4%
viability, T/C [12]: 93%
viability, T/C [13]: 75.5%
viability, T/C [14]: 94.9%
viability, T/C [15]: 74.5%
viability, T/C [16]: 83.4%
viability, T/C [17]: 87.4%
viability, T/C [18]: 84.4%
viability, T/C [19]: 81.4%
viability, T/C [20]: 90.4%
viability, T/C [21]: 78.4%
viability, T/C [22]: 73.4%
viability, T/C [23]: 84.9%
viability, T/C [24]: 80.9%
viability, T/C [25]: 70.7%
viability, T/C [26]: 50.6%
viability, T/C [27]: 49.4%
viability, T/C [28]: 52.3%
viability, T/C [29]: 68.6%
viability, T/C [30]: 52.2%
viability, T/C [31]: 39%
viability, T/C [32]: 38.7%
viability, T/C [33]: 61%
viability, T/C [34]: 53.1%
viability, T/C [35]: 56%
viability, T/C [36]: 51%

CC1COCCN1c1cc(-c2ccnn2C)c2ccnc(-c3ccn[nH]3)c2n1 (stereo unspecified) + Cc1[nH]c2ccc(F)cc2c1-c1nc2c3cccnc3c3ncccc3c2[nH]1
pIC50 (second compound 0.0316 µM): < 5.00
pIC50 (second compound 0.1 µM): < 5.00
pIC50 (second compound 0.316 µM): < 5.00
pIC50 (second compound 1 µM): 5.14
pIC50 (second compound 3.16 µM): > 7.50
pIC50 (second compound 10 µM): > 7.50
viability, T/C [1]: 84.6%
viability, T/C [2]: 69.4%
viability, T/C [3]: 87%
viability, T/C [4]: 70.5%
viability, T/C [5]: 57.9%
viability, T/C [6]: 56.3%
viability, T/C [7]: 76.1%
viability, T/C [8]: 68%
viability, T/C [9]: 68.9%
viability, T/C [10]: 60%
viability, T/C [11]: 68.1%
viability, T/C [12]: 55.3%
viability, T/C [13]: 90.5%
viability, T/C [14]: 87.7%
viability, T/C [15]: 71.2%
viability, T/C [16]: 60.3%
viability, T/C [17]: 57%
viability, T/C [18]: 59.7%
viability, T/C [19]: 89.3%
viability, T/C [20]: 86.6%
viability, T/C [21]: 65.4%
viability, T/C [22]: 60.8%
viability, T/C [23]: 57.6%
viability, T/C [24]: 46.2%
viability, T/C [25]: 48.1%
viability, T/C [26]: 48.5%
viability, T/C [27]: 53.9%
viability, T/C [28]: 45.1%
viability, T/C [29]: 44.1%
viability, T/C [30]: 32.5%
viability, T/C [31]: 42%
viability, T/C [32]: 49.6%
viability, T/C [33]: 40.8%
viability, T/C [34]: 40.2%
viability, T/C [35]: 37.8%
viability, T/C [36]: 32.4%

CC1COCCN1c1cc(C2(S(C)(=N)=O)CC2)nc(-c2ccnc3[nH]ccc23)n1 (stereo unspecified) + Cc1[nH]c2ccc(F)cc2c1-c1nc2c3cccnc3c3ncccc3c2[nH]1
pIC50 (second compound 0.0316 µM): < 5.00
pIC50 (second compound 0.1 µM): < 5.00
pIC50 (second compound 0.316 µM): < 5.00
pIC50 (second compound 1 µM): < 5.00
pIC50 (second compound 3.16 µM): 5.10
pIC50 (second compound 10 µM): 6.37
viability, T/C [1]: 96.4%
viability, T/C [2]: 83%
viability, T/C [3]: 110%
viability, T/C [4]: 89.6%
viability, T/C [5]: 87.1%
viability, T/C [6]: 67.3%
viability, T/C [7]: 76.6%
viability, T/C [8]: 101%
viability, T/C [9]: 85.8%
viability, T/C [10]: 90.1%
viability, T/C [11]: 75%
viability, T/C [12]: 74.1%
viability, T/C [13]: 97.3%
viability, T/C [14]: 79.8%
viability, T/C [15]: 97.7%
viability, T/C [16]: 70.1%
viability, T/C [17]: 74.6%
viability, T/C [18]: 63.6%
viability, T/C [19]: 80.3%
viability, T/C [20]: 79%
viability, T/C [21]: 85.4%
viability, T/C [22]: 76.1%
viability, T/C [23]: 64.3%
viability, T/C [24]: 57.4%
viability, T/C [25]: 56.2%
viability, T/C [26]: 58.6%
viability, T/C [27]: 55.9%
viability, T/C [28]: 50.1%
viability, T/C [29]: 53.6%
viability, T/C [30]: 48.7%
viability, T/C [31]: 47.9%
viability, T/C [32]: 49.5%
viability, T/C [33]: 47.5%
viability, T/C [34]: 58.2%
viability, T/C [35]: 44%
viability, T/C [36]: 36.3%
